Test results published in US20090156629A1, “INDENOISOQUINOLINE-RELEASABLE POLYMER CONJUGATES” (Enzon Pharmaceuticals, Inc., priority 2006, published 2009).

How the values were obtained:
[1] = tested on: standard panel of 12 tumor cell lines (NCI-H23, NCI-H522, MDA-MB-231, MDA-MB-435, SW-620, COLO 205, LOX, UACC-62, OVCAR-3, OVCAR-5, U251 and SF-295); experiment: In vivo hollow fiber assay (HFA); set-up: species or system mice; conditions: out of 48; NSC 706744 at 100 and 150 mg/kg; conjugates at 12 and 18 (20k) or 9 and 12 (40k) mg/kg/dose IndQ equivalent
Experimental: A standard panel of 12 tumor cell lines is used for routine hollow fiber screening. These include NCI-H23, NCI-H522, MDA-MB-231, MDA-MB-435, SW-620, COLO 205, LOX, UACC-62, OVCAR-3, OVCAR-5, U251 and SF-295. A total of 3 different tumor lines are prepared for each experiment so that each mouse receives 3 intraperitoneal implants (1 of each tumor line) and 3 subcutaneous implants (1 of each tumor line). Each compound tested is administered by intraperitoneal injection at 2 dose levels. The percent net growth for each cell line in each treatment group is calculated and compared to the percent net growth in the vehicle treated controls. A 50% or greater reduction in percent net growth in the treated samples compared to the vehicle control samples is considered a positive result. […] A compound is considered for xenograft testing if it has a combined ip+sc score of 20 or greater, a sc score of 8 or greater, or produces cell death of any cell line at either dose level evaluated.
The in vivo hollow fiber assay (HFA) in mice was conducted per previously published methods using the 20 k ΔPEG-RNL9-IndQ at equivalent IndQ active doses of 12 and 18 mg/kg/dose and 40 k ΔPEG-RNL9-IndQ at equivalent IndQ active doses of 9 and 12 mg/kg/dose. For comparison, NSC 706744 (native or unmodified) was evaluated at doses of 100 and 150 mg/kg/dose which are the highest doses routinely tested.

[2] = tested on: standard panel of 12 tumor cell lines (NCI-H23, NCI-H522, MDA-MB-231, MDA-MB-435, SW-620, COLO 205, LOX, UACC-62, OVCAR-3, OVCAR-5, U251 and SF-295); conditions: historic data for comparison; cited from earlier work

| Structure (SMILES) | score in IP fibers [1] | score in SC fibers [1] | Activity [2] | Cell Death [2] | IP + SC score [2] | IP score [2] | SC score [2] |
| --- | --- | --- | --- | --- | --- | --- | --- |
| COc1cc2c3c(n(CCCNCCO)c(=O)c2cc1OC)-c1cc2c(cc1C3=O)OCO2 [NSC 706744] | 6/48 | 6/48 | – | – | – | – | – |
| CC(=O)O[C@H]1C(=O)[C@@]2(C)[C@H]([C@H](OC(=O)c3ccccc3)[C@]3(O)C[C@H](OC(=O)[C@H](O)[C@@H](NC(=O)c4ccccc4)c4ccccc4)C(C)=C1C3(C)C)[C@]1(OC(C)=O)CO[C@@H]1C[C@@H]2O [Taxol] | – | – | Active | Yes | 42 | 36 | 6 |
